Assay results from ChEMBL document CHEMBL1201862, “PubChem BioAssay data set” (2004).
The source made the active and inactive calls.

Experiments:
H9c2 = assay: cells; assay type: functional, cell-based; settings: Rattus norvegicus, H9c2, Myocardium;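 note: confirmatory concentration-response retest of ultra-high-throughput screening hits for modulation of myocardial damage; cell death induced by hydrogen peroxide oxidative stress; compound pretreatment for 60 min then peroxide exposure for 2 h; potency is for protecting the cells against peroxide damage rather than for killing them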
[1] = CRF-BP/CRF-R2 complex antagonists, dose response, cell-based, uHTS hits, 384-well (AID 651639); assay type: functional, Homo sapiens; settings: read-out: IC50_Mean
[2] = biological target: T1, Corticotropin-releasing factor receptor 2/Corticotropin-releasing factor-binding protein (Homo sapiens, UniProt P24387+Q13324); assay: activators of CRF receptor 2 with binding protein – uHTS hits, confirmation (AID 602473); assay type: functional; settings: read-out: EC50_Mean
T1 sequence (Q13324 whole entry): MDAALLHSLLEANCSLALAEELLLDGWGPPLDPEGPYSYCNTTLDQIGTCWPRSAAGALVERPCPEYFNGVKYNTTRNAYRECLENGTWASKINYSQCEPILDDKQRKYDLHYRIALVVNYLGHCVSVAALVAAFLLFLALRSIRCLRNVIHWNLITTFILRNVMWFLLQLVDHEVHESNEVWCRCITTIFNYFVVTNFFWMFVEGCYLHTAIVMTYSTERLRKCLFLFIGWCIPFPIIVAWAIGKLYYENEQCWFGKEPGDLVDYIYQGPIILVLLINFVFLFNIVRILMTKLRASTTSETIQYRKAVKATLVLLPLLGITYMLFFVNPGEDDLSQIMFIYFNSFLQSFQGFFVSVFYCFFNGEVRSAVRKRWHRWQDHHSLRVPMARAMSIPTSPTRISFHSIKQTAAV
T1 sequence (P24387 whole entry): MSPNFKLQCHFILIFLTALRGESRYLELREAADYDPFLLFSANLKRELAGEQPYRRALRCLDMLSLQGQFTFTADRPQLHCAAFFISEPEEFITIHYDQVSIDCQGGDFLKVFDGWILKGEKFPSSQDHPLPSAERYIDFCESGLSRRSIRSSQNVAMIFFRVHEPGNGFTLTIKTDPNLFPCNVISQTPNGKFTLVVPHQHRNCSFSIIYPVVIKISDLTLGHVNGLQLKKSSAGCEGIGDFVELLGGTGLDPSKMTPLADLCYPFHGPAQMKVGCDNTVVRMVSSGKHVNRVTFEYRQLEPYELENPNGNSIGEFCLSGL

[3] = biological target: T1, Corticotropin-releasing factor receptor 2/Corticotropin-releasing factor-binding protein; assay: Dose Response confirmation of uHTS hits for small molecule antagonists of the CRF-binding protein and CRF-R2 receptor complex.; assay type: functional; settings: read-out: IC50_Mean
[4] = biological target: T2, Sentrin-specific protease 6 (Homo sapiens, UniProt Q9GZR1); assay: SAR Analysis of small molecule inhibitors of Sentrin-specific protease 6 (SENP6) using a Luminescent assay. [Related pubchem assays (depositor defined):AID2582, AID2599]; assay type: functional
T2 sequence (Q9GZR1 whole entry): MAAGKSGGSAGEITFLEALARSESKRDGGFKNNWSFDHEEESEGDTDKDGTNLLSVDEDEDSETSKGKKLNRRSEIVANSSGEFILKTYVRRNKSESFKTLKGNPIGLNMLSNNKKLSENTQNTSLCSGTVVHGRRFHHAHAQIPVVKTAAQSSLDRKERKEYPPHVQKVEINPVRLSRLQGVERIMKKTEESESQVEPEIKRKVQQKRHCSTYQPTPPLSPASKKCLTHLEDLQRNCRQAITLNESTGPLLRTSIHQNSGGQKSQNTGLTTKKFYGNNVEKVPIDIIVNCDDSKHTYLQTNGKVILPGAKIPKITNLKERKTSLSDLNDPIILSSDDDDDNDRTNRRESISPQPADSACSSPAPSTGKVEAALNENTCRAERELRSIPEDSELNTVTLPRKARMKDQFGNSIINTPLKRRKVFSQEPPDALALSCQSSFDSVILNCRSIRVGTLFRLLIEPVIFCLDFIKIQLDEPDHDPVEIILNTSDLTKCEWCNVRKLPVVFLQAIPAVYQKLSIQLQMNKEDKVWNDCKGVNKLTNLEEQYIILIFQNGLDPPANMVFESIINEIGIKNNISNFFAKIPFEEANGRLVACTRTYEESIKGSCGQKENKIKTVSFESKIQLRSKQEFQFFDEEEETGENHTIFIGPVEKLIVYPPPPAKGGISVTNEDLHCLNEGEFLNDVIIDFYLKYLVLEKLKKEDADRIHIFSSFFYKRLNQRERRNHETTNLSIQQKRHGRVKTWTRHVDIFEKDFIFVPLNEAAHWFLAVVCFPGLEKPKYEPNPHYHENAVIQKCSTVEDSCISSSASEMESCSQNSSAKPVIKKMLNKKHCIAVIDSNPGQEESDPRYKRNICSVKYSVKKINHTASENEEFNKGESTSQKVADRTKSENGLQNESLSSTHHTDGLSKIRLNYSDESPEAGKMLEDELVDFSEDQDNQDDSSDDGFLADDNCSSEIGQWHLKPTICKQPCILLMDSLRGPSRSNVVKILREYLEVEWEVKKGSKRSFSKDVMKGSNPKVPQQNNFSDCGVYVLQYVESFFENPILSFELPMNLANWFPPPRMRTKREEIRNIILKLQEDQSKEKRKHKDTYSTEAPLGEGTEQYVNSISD

[5] = biological target: T3, Sentrin-specific protease 8 (Homo sapiens, UniProt Q96LD8); assay: SENP8 protease inhibitors, SAR follow-up, biochemical, luminescence (AID 504501); assay type: functional
T3 sequence (Q96LD8 whole entry): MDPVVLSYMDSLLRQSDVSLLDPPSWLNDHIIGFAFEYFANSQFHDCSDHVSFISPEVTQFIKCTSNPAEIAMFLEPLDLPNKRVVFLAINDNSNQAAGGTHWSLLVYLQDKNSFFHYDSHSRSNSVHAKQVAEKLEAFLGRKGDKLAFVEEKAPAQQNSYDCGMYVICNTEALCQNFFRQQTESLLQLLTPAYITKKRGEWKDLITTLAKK

Caspase-3 = biological target: T4, Caspase-3 (Homo sapiens, UniProt P42574); assay: SAR Analysis of small molecule inhibitors of Sentrin-specific proteases (SENPs) using a Caspase-3 Selectivity assay. [Related pubchem assays (depositor defined):AID2540, AID2599, AID434973, AID489001]; assay type: functional
T4 sequence (P42574 whole entry): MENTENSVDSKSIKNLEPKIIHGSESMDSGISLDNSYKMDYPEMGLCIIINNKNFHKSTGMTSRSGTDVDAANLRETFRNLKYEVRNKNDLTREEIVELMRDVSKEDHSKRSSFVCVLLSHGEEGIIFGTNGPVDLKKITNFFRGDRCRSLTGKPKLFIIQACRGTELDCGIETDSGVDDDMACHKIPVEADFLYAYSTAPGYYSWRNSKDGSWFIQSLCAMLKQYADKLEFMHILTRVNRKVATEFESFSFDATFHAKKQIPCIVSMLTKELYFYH

[6] = biological target: T5, Sentrin-specific protease 7 (Homo sapiens, UniProt Q9BQF6); assay: SENP7 protease inhibitors, SAR follow-up, biochemical, luminescence (AID 504497); assay type: functional
T5 sequence (Q9BQF6 whole entry): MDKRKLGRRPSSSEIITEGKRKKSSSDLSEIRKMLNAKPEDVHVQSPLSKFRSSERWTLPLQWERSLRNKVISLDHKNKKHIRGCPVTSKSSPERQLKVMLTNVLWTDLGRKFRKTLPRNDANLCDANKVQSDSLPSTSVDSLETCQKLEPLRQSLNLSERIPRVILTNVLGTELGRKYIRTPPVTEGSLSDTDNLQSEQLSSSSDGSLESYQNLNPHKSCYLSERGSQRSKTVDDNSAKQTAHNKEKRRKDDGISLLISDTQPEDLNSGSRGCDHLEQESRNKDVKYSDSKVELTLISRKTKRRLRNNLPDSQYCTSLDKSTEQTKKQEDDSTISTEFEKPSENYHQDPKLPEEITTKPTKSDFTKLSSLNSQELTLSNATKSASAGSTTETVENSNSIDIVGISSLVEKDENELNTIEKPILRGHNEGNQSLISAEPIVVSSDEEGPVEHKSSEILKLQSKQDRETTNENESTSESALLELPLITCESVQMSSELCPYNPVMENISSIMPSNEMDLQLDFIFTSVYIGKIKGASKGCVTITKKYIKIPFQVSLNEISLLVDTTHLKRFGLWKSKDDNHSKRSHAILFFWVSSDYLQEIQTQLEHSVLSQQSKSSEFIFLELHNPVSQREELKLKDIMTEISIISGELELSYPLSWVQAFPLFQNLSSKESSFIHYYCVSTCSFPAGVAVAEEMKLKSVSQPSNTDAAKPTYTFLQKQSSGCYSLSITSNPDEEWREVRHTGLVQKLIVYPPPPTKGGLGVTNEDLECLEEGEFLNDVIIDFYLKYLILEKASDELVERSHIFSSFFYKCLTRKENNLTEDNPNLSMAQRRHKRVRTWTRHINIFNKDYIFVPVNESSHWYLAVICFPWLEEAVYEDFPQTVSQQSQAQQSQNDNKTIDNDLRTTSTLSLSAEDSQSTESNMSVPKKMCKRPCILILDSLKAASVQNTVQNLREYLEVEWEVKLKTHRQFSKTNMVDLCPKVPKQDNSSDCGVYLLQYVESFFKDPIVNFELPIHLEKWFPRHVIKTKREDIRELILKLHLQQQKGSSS

[7] = intracellular Trypanosoma cruzi inhibitors in host cells – cell-based, plate reader, cherry-pick samples, set 3, dose response (AID 651818); assay type: functional;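 note: compounds incubated with infected cells for about four days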
INS1 = assay: beta cell apoptosis inhibitors, cytokine rescue, dose response, luminescence, retest (AID 449756); assay type: functional, cell-based; settings: Rattus norvegicus;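 note: cell death triggered by IL-1 beta plus TNF-alpha plus IFN-gamma mixture; protective hits raise ATP signal compared with cytokine alone wells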
SN12K1 = assay: cells; assay type: functional; settings: Homo sapiens

SMILES: CCOC(=O)c1c(C)[nH]c(C(=O)COc2ccc3ccc(=O)oc3c2)c1C
- IC50 (H9c2): 23.7 µM (active)

SMILES: COC(=O)c1ccc(CSc2nc3c(c(=O)n2-c2ccc(Br)cc2)SCC3)o1
- IC50 [1]: 15.4 µM (active)
- EC50 [2]: > 53 µM (inactive)
- IC50 [3]: 7.86 µM (active)

SMILES: CCCCc1ccc2nc(NC(=O)c3oc4ccccc4c3C)sc2c1
- IC50 [4]: > 99 µM (inactive)
- IC50 [5]: > 99 µM (inactive)
- IC50 (Caspase-3): > 99 µM (inactive)
- IC50 [6]: > 99 µM (inactive)

SMILES: C[C@@H]1CN([C@@H](C)CO)C(=O)c2cc(NC(=O)Cc3cn(C)c4ccccc34)ccc2O[C@H]1CN(C)Cc1ccc(C(F)(F)F)cc1
- AC50 [7]: 4.31 µM (active)

SMILES: CN(C)CCN(C(=O)c1ccc(Cl)s1)c1nc2ccc(F)cc2s1
- IC50 [4]: > 99 µM (inactive)
- IC50 [5]: > 99 µM (inactive)
- IC50 (Caspase-3): > 99 µM (inactive)
- IC50 [6]: > 99 µM (inactive)

SMILES: Cc1noc(C)c1S(=O)(=O)Nc1ccc2c(c1)C(=O)N([C@@H](C)CO)C[C@H](C)[C@H](CN(C)Cc1ccc(C(=O)Nc3ccccc3N)cc1)O2
- AC50 [7]: 2.08 µM (active)

SMILES: C[C@H](CO)N1C[C@H](C)[C@@H](CN(C)S(=O)(=O)c2ccc(F)cc2)Oc2ccc(NC(=O)Nc3ccc4c(c3)OCO4)cc2C1=O
- IC50 (H9c2): > 79 µM (inactive)

SMILES: CCOc1cc(/C=C(\C#N)C(=O)Nc2ccc(S(N)(=O)=O)cc2)ccc1OCCN1CCOCC1
- IC50 (H9c2): > 79 µM (inactive)

SMILES: Cc1ccc(S(=O)(=O)c2nnn3c2nc(N2CCOCC2)c2ccccc23)c(C)c1
- IC50 [1]: > 20 µM (inactive)
- EC50 [2]: > 53 µM (inactive)
- IC50 [3]: < 0.368 µM (active)

SMILES: C[C@@H]1CN([C@H](C)CO)C(=O)Cc2cc(NS(=O)(=O)c3ccc(Cl)cc3)ccc2O[C@H]1CN(C)CC1CCCCC1
- AC50 [7]: 2.67 µM (active)

SMILES: Cc1ccc(C(=O)Nc2nc(-c3ccccn3)cs2)s1
- IC50 (H9c2): > 79 µM (inactive)
- AC50 (INS1): 1.67 µM (active)

SMILES: CCCc1ccccc1-c1nc(/C=C/c2ccccc2)no1
- IC50 [4]: > 99 µM (inactive)
- IC50 [5]: > 99 µM (inactive)
- IC50 (Caspase-3): > 99 µM (inactive)
- IC50 [6]: > 99 µM (inactive)

SMILES: Clc1cccc(-c2nnc(SC/C=C/c3ccccc3)n2Cc2ccco2)c1
- IC50 [1]: > 20 µM (inactive)
- EC50 [2]: > 53 µM (inactive)
- IC50 [3]: 4.74 µM (active)

SMILES: CC(C)(C)OC(=O)C[C@@H]1C/C=C\C[C@@H](CC(=O)N[C@H](CO)Cc2ccccc2)C(=O)NC[C@@H](c2ccccc2)OC1=O
- IC50 (H9c2): > 79 µM (inactive)

SMILES: C[C@@H]1CN([C@H](C)CO)C(=O)Cc2cc(NC(=O)Nc3cccc4ccccc34)ccc2O[C@@H]1CN(C)Cc1ccc(C(F)(F)F)cc1
- AC50 [7]: 4.02 µM (active)

SMILES: Cc1ccc(C(C)C)c(OCC(=O)NNC(=O)Cn2[nH]c(=O)c3ccccc3c2=O)c1
- IC50 (H9c2): > 79 µM (inactive)

SMILES: Cc1[nH]c(=O)sc1S(=O)(=O)N1CCN(C(=O)c2sc3cc(F)ccc3c2Cl)CC1
- IC50 [4]: > 99 µM (inactive)
- IC50 [5]: > 99 µM (inactive)
- IC50 (Caspase-3): > 99 µM (inactive)
- IC50 [6]: > 99 µM (inactive)

SMILES: C[C@@H]1CN([C@H](C)CO)C(=O)Cc2cc(NC(=O)Nc3ccc(F)cc3)ccc2O[C@H]1CN(C)CC1CCCCC1
- AC50 [7]: 6.17 µM (active)

SMILES: O=C(NCc1ccc2c(c1)OCO2)c1c(F)c(F)c(F)c(F)c1F
- IC50 [1]: 8.28 µM (active)
- EC50 [2]: > 53 µM (inactive)
- IC50 [3]: 18.7 µM (active)

SMILES: CCOc1ccc2nc(NC(=O)Cn3c(=O)oc4ccc(C(=O)N5CCCC5)cc43)sc2c1
- IC50 [4]: > 99 µM (inactive)
- IC50 [5]: > 99 µM (inactive)
- IC50 (Caspase-3): > 99 µM (inactive)
- IC50 [6]: > 99 µM (inactive)

SMILES: O=C(OC(=O)n1ccc2ccccc21)n1ccc2ccccc21
- GI50 (SN12K1): > 100 µM (inactive)

SMILES: C[C@@H]1CN([C@H](C)CO)C(=O)Cc2cc(NC(=O)Cc3cn(C)c4ccccc34)ccc2O[C@H]1CN(C)CC1CCCCC1
- AC50 [7]: 8.13 µM (active)
